How the values were obtained:
[1] = target: T1, ZIKV RdRp (Zika virus, UniProt A0A024B7W1); test: In vitro ZIKV RdRp activity assay (Syto9 fluorescence); type: biochemical; conditions: purified ZIKV RdRp domain, poly-U/ATP, 30°C 60 min; read-out: EC50, inhibition of ZIKV RdRp activity
T1 construct: we expressed and purified ZIKV RdRp domain; made in house; host or cells: Escherichia coli BL21 (DE3)
Source text: Through molecular docking experiments and cell thermal shift analysis, we supose that 4w may have a direct interaction with ZIKV RdRp. In order to verify whether the binding of 4w and NS5 protein is directly related to ZIKV RdRp, we expressed and purified ZIKV RdRp domain, and detected its activity according to the method described in the literature ([Qian et al., 2022]) (Figure 6A). […] Heparin is a protein chelating agent. […] Heparin was selected as the positive control drug in this experiment, and the syto9-only group was used as the negative control, the same volume of DMSO as a positive control.
The ZIKV RdRp was expressed and purified, and the protein expression and purification method was as described before ([Xu et al., 2017]; [Sáez-Álvarez et al., 2019]). 4w was diluted with protein dialysis buffer to 1,500 nM and stored for later use. In vitro RdRp polymerase activity assay was described previously ([Qian et al., 2022]), 1,500 ng of purified RdRp protein, gradient diluted 4w and positive control drug 5 μM, 2 mg/ml Poly-U, 20mM ATP, 1M Tris-HCl, 100 mg/ml BSA, 100mM MnCl2 was added to a 96-well PCR plate. After mixing, the reaction was performed at 30°C in the dark for 60 min. […] RdRp protein activity was detected on a real-time fluorescence quantitative PCR instrument.

[2] = MTT cytotoxicity assay in Huh7 cells; type: cell-based; conditions: human
Procedure: MTT assay was used to detect the toxicity of the compound. Cells were seeded in 96-well plates and cultured overnight. Compounds with different concentrations were added and incubated for 96 h. Then, 20 μl of 5 mg/ml MTT (Sigma-Aldrich, United States) solution was added to each well and kept at 37°C for 4 h. Subsequently, 100 μl of 12% SDS-50% DMF (Sigma-Aldrich, United States) solution was added and incubated overnight at 37°C. After the crystalline formamidine was completely dissolved, the optical density (OD) value was measured using a microplate reader (BioTek, United States) with a wavelength of 570 nm and a reference wavelength of 630 nm.
The 50% effective concentration (EC50) and 50% cytotoxic concentration (CC50) of the compound were calculated according to the Reed and Muench method, inhibition rate of ZIKV RNA yield- [(1-drug treatment/positive control) × 100]. The data and graphs were processed using GraphPad Prism8 software, expressed as mean ± standard deviation (Mean ± SD), comparison between groups using ANOVA, p < 0.05 was considered statistically significant.

[3] = system: ZIKV E protein; test: Immunofluorescence assay of ZIKV E protein in infected Vero cells; type: cell-based, Zika virus; conditions: 25 μM, 72 h
Source text: (§1) ZIKV E protein is one of the most important structural proteins of ZIKV, which plays an important role in the correct assembly of the virus and evasion of the host’s innate immunity ([Jaimipuk et al., 2022]). We have verified that 4w has a significant inhibitory effect on ZIKV-infected cell lines from different sources at the molecular level, but it is unknown whether it has the same antiviral effect at the protein level. Therefore, in order to explore the inhibitory effect of 4w on ZIKV protein level, we added serially diluted 4w to ZIKV-infected Vero cells for 48 h, collected the total protein for WB experiments, and then detected the effect of 4w on ZIKV E and NS5 protein. At the same time, the inhibitory effect of 4w on ZIKV E protein was verified again by immunofluorescence experiment.
Vero cells were seeded at 2 × 10^5 cells/ml in a 24-well plate with cell slides, and 500 μl/well was cultured overnight in a 37°C, 5% CO2 incubator. ZIKV (MOI = 1) was added to infect at 37°C for 2 h, and then discarded the virus. The cells were washed twice with PBS and then added to 500 μl of 4w diluted in concentration gradients. At the same time, virus-only as a positive control and a medium-only as negative control were set. […] Microscopic examinations were performed on a Leica DMI4000B Microsystem (Wetzlar, Germany), and an image was recorded using the system.

[4] = system: ZIKV; test: Time of drug withdrawal experiment; type: cell-based, Zika virus; conditions: 50 μM, drug withdrawal 4–6 h after dosing, viral load after 24 h
Procedure: ZIKV RdRp was a important domain in the C-terminal of ZIKV NS5, and plays a crucial role in the replication and synthesis of RNA in the life cycle of ZIKV. In order to further verify that 4w activity is related to RdRp domain inhibition, we examined the effect of 4w on the replication cycle of ZIKV using four different drug treatments and time-sharing withdrawal experiments (Figure 7A).
The virus was added to the cells and adsorbed for 2 h at 4°C, then the unabsorbed virus was washed away with pre-cooled PBS, and 50 μM 4w was added at the same time. Withdraw the drug at 1, 2, 4, 6, 8, and 12 h after dosing. The cell supernatant was collected for viral load detection after the maintenance medium continued to culture for 24 h.

[5] = system: ZIKV NS5 protein; test: Western blot of ZIKV NS5 protein in infected Vero cells; type: cell-based; conditions: 12.5 μM, 48 h
Source text: as §1
Vero cells were infected with ZIKV (MOI = 1) at 37°C for 2 h. Next, the different amounts of 4w were added to continue culturing for 48 h to extract the total protein in the cells. The total protein was separated in sodium dodecyl sulfate polyacrylamide gel electrophoresis (SDS-PAGE). […] The antibody signal was recorded and quantified using the Tanon-5200 Multi Imaging System.

[6] = system: HCV NS5B RdRp; conditions: ref Shen (2015); cited from earlier work

T1 sequence (A0A024B7W1 2793-3423): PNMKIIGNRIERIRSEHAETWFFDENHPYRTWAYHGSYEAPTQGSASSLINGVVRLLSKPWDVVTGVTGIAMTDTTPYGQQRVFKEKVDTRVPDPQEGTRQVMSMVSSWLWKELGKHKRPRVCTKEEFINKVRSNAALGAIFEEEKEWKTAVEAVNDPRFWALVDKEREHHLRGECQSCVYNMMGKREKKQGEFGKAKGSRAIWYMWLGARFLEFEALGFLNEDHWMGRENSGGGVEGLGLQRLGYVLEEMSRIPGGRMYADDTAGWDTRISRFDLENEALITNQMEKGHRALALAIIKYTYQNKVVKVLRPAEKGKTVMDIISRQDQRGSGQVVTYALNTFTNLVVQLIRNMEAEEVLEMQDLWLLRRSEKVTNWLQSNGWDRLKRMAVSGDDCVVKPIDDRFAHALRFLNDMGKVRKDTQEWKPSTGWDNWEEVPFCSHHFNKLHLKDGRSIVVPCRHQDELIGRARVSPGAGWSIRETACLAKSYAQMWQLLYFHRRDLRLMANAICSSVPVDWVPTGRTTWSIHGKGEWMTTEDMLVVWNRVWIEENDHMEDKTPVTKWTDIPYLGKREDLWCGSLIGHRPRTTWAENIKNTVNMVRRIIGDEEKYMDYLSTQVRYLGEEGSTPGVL

## CCc1c(C2CCCCC2)nc(SCC(=O)Nc2cc(F)cc(F)c2)[nH]c1=O [Compound 4w, 2-{[4-cyclohexyl-5-ethyl-6-oxo-1,6-dihydropyrimidin-2-yl]thio}-N-(3,5-difluorophenyl)acetamide]
[1]
  EC50: 11.4 ± 0.51 µM
[2]
  CC50 at 96 h: > 200 µM
[3]
  inhibition of ZIKV E protein expression (immunofluorescence): completely inhibited
[4]
  effect of drug withdrawal on release of progeny virus: significantly inhibit the release of progeny virus
[5]
  inhibition of ZIKV NS5 protein expression (WB): significantly inhibit
[6]
  IC50: 0.102 µM
